Test results reported in US20080213385A1, “Formulations for 7- (T-Butoxy) Iminomethyl Camptothecin” (priority 2005, published 2008).

Legend:
[1] = In vitro dissolution rate testing (USP2 apparatus, paddle); assay type: physicochemical; details: 50 rpm, 37° C., 0.3% SDS in 1,000 mL water
Procedure: The dissolution rate testing was done using an USP2 apparatus, paddle, 50 rpm, 37° C., 0.3% SDS in 1,000 mL water, n=3. For dissolution rate testing, the aqueous suspensions were diluted 1:5 with water and filled into vials (0.5 mg drug substance/vial).

[2] = Particle size distribution by laser light scattering; assay type: physicochemical; details: after milling (unmilled for unmilled drug)
Procedure: The aqueous nano-milling was performed in a ball mill using yittrium […] zirconia beads (0.5-0.6 mm in 0). For all trials the batch size was approximately 70 g. Prior to milling the beads were conditioned with 1% stabilizer solution for 24 hours at 1,200 rpm (minimal speed, 80 mL solution for 160 mL beads), rinsed with demineralized water until conductivity reading was the same as that of the water, placed in a 150-200° C. oven until dry and cooled to room temperature before use. Milling was performed at 3,200 rpm and milling times as outlined in Table 1 were used. Before and after milling the aqueous suspensions were characterized with respect to particle size distribution, appearance (microscopic pictures and laser light scattering), and dissolution rate and assay/degradation.

Q: With `CC[C@@]1(O)C(=O)OCc2c1cc1n(c2=O)Cc2c-1nc1ccccc1c2/C=N/OC(C)(C)C` [Unmilled drug, 7-t-butoxyiminomethylcamptothecin] as the compound, how does the “Dissolution rate: % released, mean (n = 3), after 15 min” value ([1]; 0.5 mg drug substance/vial, 15 min) read?
A: 3%

Q: What about the “Dissolution rate: % released, mean (n = 3), after 30 min” value ([1]; 30 min) of the same compound?
A: 5%

Q: What about the “Dissolution rate: % released, mean (n = 3), after 60 min” value ([1]; 60 min) of the same compound?
A: 15%

Q: And the “Dissolution rate: % released, mean (n = 3), after 120 min” value ([1]; 120 min)?
A: 31%

Q: And the “PSD (light scattering, after milling) x10” value [2]?
A: x10 = 2 μm

Q: And the “PSD (light scattering, after milling) x50” value [2]?
A: x50 = 9 μm

Q: What about the “PSD (light scattering, after milling) x90” value [2] of the same compound?
A: x90 = 35 μm
